Assay results from PMC6905088 (Biochemical pharmacology, 2019).

Assays:
[1] = target: CYP2C9 (Homo sapiens, UniProt P11712); test: Recombinant isozyme kinetic assay
[2] = target: T1, CYP2B6 (Homo sapiens, UniProt P20813); test: Recombinant isozyme kinetic assay; conditions: substrate desmethyl-terbinafine
T1 sequence (P20813 1-491): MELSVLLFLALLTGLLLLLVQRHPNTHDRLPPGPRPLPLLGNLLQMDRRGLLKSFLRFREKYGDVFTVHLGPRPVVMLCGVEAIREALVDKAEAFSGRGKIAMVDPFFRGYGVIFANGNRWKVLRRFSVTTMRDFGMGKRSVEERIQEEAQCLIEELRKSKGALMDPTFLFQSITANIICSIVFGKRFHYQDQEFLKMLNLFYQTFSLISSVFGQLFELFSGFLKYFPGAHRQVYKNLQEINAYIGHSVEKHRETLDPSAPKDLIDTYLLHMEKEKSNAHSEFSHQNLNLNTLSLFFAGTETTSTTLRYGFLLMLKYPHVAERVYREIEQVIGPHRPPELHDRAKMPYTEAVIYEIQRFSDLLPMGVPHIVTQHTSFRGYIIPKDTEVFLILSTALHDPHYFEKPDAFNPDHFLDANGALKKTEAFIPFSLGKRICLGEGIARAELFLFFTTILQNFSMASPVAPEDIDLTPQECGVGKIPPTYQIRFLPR

[3] = target: T2, CYP1A2 (Homo sapiens, UniProt P05177); test: Recombinant isozyme kinetic assay; conditions: substrate desmethyl-terbinafine
T2 sequence (P05177 1-516): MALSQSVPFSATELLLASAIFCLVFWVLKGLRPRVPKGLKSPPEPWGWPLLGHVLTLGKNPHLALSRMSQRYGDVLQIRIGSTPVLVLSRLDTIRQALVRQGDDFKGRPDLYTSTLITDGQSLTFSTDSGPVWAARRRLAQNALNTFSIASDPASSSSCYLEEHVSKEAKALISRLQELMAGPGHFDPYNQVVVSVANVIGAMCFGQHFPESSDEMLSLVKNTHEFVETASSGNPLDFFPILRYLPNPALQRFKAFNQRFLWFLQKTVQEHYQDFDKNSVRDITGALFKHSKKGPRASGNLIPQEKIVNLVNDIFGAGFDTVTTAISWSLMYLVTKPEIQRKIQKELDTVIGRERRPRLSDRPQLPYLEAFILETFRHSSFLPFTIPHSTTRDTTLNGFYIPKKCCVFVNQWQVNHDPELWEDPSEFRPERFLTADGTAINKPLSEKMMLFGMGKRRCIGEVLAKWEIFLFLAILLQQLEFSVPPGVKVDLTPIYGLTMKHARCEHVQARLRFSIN

[4] = target: T3, CYP2C8 (Homo sapiens, UniProt P10632); test: Recombinant isozyme kinetic assay; conditions: substrate desmethyl-terbinafine
T3 sequence (P10632 1-490): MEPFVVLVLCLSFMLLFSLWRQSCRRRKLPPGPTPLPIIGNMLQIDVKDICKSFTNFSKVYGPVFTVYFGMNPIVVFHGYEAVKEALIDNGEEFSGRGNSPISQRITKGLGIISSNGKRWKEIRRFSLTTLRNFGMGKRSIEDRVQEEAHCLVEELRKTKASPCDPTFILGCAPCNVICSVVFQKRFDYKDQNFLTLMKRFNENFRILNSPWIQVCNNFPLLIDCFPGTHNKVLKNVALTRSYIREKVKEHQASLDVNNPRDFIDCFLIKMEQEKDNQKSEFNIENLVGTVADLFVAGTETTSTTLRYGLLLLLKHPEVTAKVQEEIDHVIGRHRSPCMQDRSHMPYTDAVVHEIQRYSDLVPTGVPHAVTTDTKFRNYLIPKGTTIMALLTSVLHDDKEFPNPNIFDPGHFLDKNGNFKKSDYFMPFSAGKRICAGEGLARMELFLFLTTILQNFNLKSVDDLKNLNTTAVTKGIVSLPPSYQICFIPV

[5] = target: CYP2D6 (Homo sapiens, UniProt P10635)
[6] = CYP2C9, Step 2.2b, substrate desmethyl-terbinafine
[7] = normalized MS peak area, scaled x10^6

Chain of CYP2C9 (P11712 whole entry): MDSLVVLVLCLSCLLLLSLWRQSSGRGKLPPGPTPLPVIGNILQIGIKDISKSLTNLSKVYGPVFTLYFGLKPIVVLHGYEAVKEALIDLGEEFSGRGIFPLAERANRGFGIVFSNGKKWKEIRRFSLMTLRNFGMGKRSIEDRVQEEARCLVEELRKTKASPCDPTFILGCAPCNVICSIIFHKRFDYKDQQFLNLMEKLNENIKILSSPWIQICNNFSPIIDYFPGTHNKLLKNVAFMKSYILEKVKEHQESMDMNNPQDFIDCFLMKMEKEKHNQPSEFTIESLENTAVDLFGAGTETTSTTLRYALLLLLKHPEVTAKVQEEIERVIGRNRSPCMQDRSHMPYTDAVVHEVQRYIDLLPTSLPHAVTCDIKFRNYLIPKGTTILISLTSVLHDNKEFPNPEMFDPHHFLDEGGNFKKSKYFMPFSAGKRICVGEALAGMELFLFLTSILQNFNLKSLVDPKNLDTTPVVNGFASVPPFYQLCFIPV
Chain of CYP2D6 (P10635 whole entry): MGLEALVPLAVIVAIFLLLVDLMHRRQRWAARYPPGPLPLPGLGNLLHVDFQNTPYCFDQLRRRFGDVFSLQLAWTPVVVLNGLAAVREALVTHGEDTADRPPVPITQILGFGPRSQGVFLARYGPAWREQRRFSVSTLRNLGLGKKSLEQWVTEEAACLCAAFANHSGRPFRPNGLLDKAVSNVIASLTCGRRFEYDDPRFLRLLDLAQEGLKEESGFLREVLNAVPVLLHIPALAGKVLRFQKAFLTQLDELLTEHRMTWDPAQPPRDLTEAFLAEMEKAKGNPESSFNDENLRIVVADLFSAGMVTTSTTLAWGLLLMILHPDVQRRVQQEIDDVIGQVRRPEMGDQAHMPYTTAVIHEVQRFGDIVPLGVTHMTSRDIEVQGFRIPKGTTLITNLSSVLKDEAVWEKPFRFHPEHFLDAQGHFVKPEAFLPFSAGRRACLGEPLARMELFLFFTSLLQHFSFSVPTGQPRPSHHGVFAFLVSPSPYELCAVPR

SMILES: CC(C)(C)C#C/C=C/CNCc1cccc2ccccc12.Cl [desmethyl-terbinafine, N-desmethyl-terbinafine hydrochloride]
- Vmax, 1-naphthyl-methylamine formation ([1]; CYP2C9, Step 2.2a, substrate desmethyl-terbinafine): 330 ± 41 pmol/min/nmol protein
- 6,6-dimethyl-2-hepten-4-yn-1-amine formation (steady-state kinetic constants) [1, 6]: undetected
- Vmax, 1-naphthaldehyde formation [1, 6]: 69 ± 4.4 pmol/min/nmol protein
- desmethyl hydroxyterbinafine formation (kinetic constants) ([1]; CYP2C9, substrate desmethyl-terbinafine): undetected
- Vmax, desmethyl-terbinafine dihydrodiol formation ([1]; CYP2C9, substrate desmethyl-terbinafine, normalized MS peak area, scaled x10^6): 2.0 ± 0.07 μV*sec/min/nmol
- fold higher efficiency of dihydrodiol formation by CYP2C9 vs CYP2B6 ([1]; substrate desmethylterbinafine): 50 fold
- 6,6-dimethyl-2-hepten-4-yn-1-amine formation (steady-state kinetic constants) ([2]; Step 2.2b): undetected
- Vmax, desmethyl hydroxyterbinafine formation ([2]; no saturation): linear
- Vmax, desmethyl-terbinafine dihydrodiol formation [2, 7]: 0.59 ± 0.13 μV*sec/min/nmol
- desmethyl hydroxyterbinafine formation (kinetic constants) [3]: undetected
- desmethyl-terbinafine dihydrodiol formation (kinetic constants) [3]: undetected
- Vmax, 1-naphthyl-methylamine formation ([4]; Step 2.2a): 85 ± 6.5 pmol/min/nmol protein
- 6,6-dimethyl-2-hepten-4-yn-1-amine formation (steady-state kinetic constants) ([4]; Step 2.2b): undetected
- Vmax, 1-naphthaldehyde formation ([4]; Step 2.2b): 300 ± 28 pmol/min/nmol protein
- desmethyl-terbinafine dihydrodiol formation (kinetic constants) [4]: undetected
- Vmax, desmethyl hydroxyterbinafine formation [4, 7]: 0.61 ± 0.04 μV*sec/min/nmol
- desmethyl hydroxyterbinafine formation (kinetic constants) [5]: undetected
